Laboratory results: patent US6890762B1, “Method for measuring physiocochemical properties of tissues of cells, method for examining chemicals, and apparatus therefor” (Matsushita Technical Information Services Co., Ltd., priority 1996, dated 2005)

Experiments:
[1] = test system: slice of the cerebral cortex of a rat; assay: induced potential of cultivated rat cerebral cortex slice on integrated multiple electrode; format: cell-based; details: for chronic effect on the induced potential: 3 days after addition on the third day of culturing
Method: In this example, a slice of the cerebral cortex of a rat was used as nervous tissue and cultivated with the culturing method described below. As a change in the physical and chemical environment, the stimulant drug methamphetamine has been added to the culturing fluid. Furthermore, the electrophysiological properties of the tissue or cells, that is the induced potential when a stimulus has been applied, were measured as the physical and chemical properties of the tissue or cells.
Preceding the culturing of the cells, the surface of the integrated multiple electrode 2 was covered with collagen gel not thicker than 50 μm, to promote the adhesive strength between the microelectrodes 11 of the integrated multiple electrode 2 and the cells. Then the cerebral cortex slice of the rat (not thicker than 500 μm) was placed and cultivated on top of the microelectrodes 11 and the collagen gel. FIGS. 10(a)-(e) show the measured induced potentials 30 min after methamphetamine has been added in different concentrations to the culture medium on the sixth day of culturing, and FIGS. 11(a)-(c) show the measured induced potentials 3 days after methamphetamine has been added in different concentrations to the culture medium on the third day of culturing, together with the induced potential before the addition of the methamphetamine. In other words, FIGS. 10(a)-(e) show the acute effect of the methamphetamine and FIGS. 11(a)-(c) show the chronic effect of the methamphetamine.
(4-2) Culturing Method for a Rat Cerebral Cortex Slice
(a) A brain is taken from a two days old SD rat, and immersed in a Hanks' balanced salt solution cooled in iced water, with 0.25 vol. % D-glucose.
(b) In the cooled Hanks' balanced salt solution with 0.25 vol.% D-glucose, the meninges attached to the brain is removed carefully without damaging the cerebral cortex with a sharp-tipped pincette.
(c) A section is made with micro-scissors used in eye surgery, about 500 μm from the corpus callosum on one side of the cerebral cortex from which the meninges has been removed along the corpus callosum from the occipital lobe towards the frontal lobe.
(d) Next, a slice is prepared with micro-scissors used in eye surgery by cutting vertically 200-300 μm into the cerebral cortex from the sectional plane described under (c).
(e) Furthermore, the slice is adjusted with micro-scissors used in eye surgery to a size of about 1×1 mm.
(f) The integrated multiple electrode, the preparation of which has been explained under “(3) Surface Processing of the Integrated Multiple Electrode 2”, is taken out of the CO2 incubator, the adjusted slice of the cerebral cortex is carefully taken up without damaging it with a pipette with at least 2 mm opening diameter, and moved into the well of the integrated multiple electrode 2.
(g) The cerebral cortex is placed on the microelectrodes 11 with a layered portion pointing upwards, carefully so as not to damage the cerebral cortex, using a Pasteur pipette, the tip of which has been smoothed by heating with a burner.
(h) After the slice of the cerebral cortex has been placed on the integrated multiple electrode 2, the amount of the culture medium is adjusted so that the bottom of the slice is immersed in the culture medium and the top of the slice is in the open air.
(i) After the adjustment of the culture medium, the integrated multiple electrode 2 is placed on a Petri dish, about 5 mL of 37° C. sterile water is poured onto the Petri dish to prevent dehydration of the culture medium, and the integrated multiple electrode 2 is again placed in the CO2 incubator.
(j) While observing the amount of the culture medium, the culture medium was renewed once every day. The amount of the culture medium is adjusted as described in (i).

slice of a rat heart = assay: spontaneous activity potential of cultivated rat heart slice on integrated multiple electrode; format: cell-based; details: final concentration of 1 mM, added on the fifth day of the culturing
Excerpt: This slice of a rat heart has been cultivated as explained below. […] The same culture medium as described in the first example was used. The structure of the integrated multiple electrode 2 and the surface processing was the same as described in the first example. In order to increase the adhesive strength between the tissue (the cells) and the microelectrodes 11 of the integrated multiple electrode 2, collagen gel (under 50 μm thick) has been applied to the surface of the integrated multiple electrode 2 before the culturing. Then the rat heart slice is placed and cultivated on the collagen gel where the microelectrodes 11 are. The rat heart slice is prepared, so that a sinoatrial node or an atrioventricular node is included. […] This culturing method is explained below. (a) A heart is taken from a two days old SD rat, and immersed in a Hanks' balanced salt solution cooled with ice water, with 0.25 vol. % D-glucose. The hanks' balanced salt solution is renewed several times to rinse out the blood completely. (b) Careful incision and preparation of a heart slice is performed, so that a sinoatrial node and an atrioventricular node are included in the heart slice. (c) The slice is adjusted with micro-scissors used in eye surgery to a size of about 1×1 mm. […]

For CN[C@@H](C)Cc1ccccc1 [methamphetamine], the “chronic effect on the induced potential” value ([1]; 0.01 mM methamphetamine) was “disappeared”, the “acute effect on the induced potential” value ([1]; 0.1 mM methamphetamine, 30 min after addition on the sixth day of culturing) was “no noticeable acute effect” and the “chronic effect on the induced potential” value ([1]; 0.1 mM methamphetamine) was “disappeared almost completely”. For the same compound, the “acute effect on the induced potential (deflection)” value ([1]; 0.5 mM methamphetamine, 30 min after addition on the sixth day of culturing) was “somewhat smaller”, the “acute effect on the induced potential” value ([1]; 1 mM methamphetamine, 30 min after addition on the sixth day of culturing) was “disappeared almost completely” and the “induced potential after removal of the substance (chronic)” value ([1]; after the methamphetamine has been removed, chronic exposure) was “did not recover”. For the same compound, the “induced potential after removal of the substance (acute)” value ([1]; methamphetamine removed from the fluid, culture medium returned to usual composition) was “recovered to almost the same condition as before”.

With CNCC(O)c1ccc(O)c(O)c1 (centres unmarked) [adrenaline] the “beat frequency of the spontaneous activity potential versus before the addition” value (slice of a rat heart) was “noticeably higher”.
